Converted amounts (≈) assume the structure as drawn.
What was measured:
[1] = biological target: GABA A receptor alpha-5/beta-3/gamma-2 (Rattus norvegicus) (UniProt P18508+P19969+P63079); experiment: Inverse agonist activity at rat GABA alpha-5-beta-3-gamma-2 receptor expressed in HEK293 cells by electrophysiology assay relative to GABA; assay type: functional, cell-based
[2] = biological target: T1, GABA-A receptor; alpha-1/beta-3/gamma-2 (Homo sapiens, UniProt P14867+P18507+P28472); experiment: Displacement of [3H]Flumazenil from cloned human GABA alpha-1-beta-3-gamma-2 receptor expressed in HEK293 cells; assay type: cell-based
T1 sequence (P14867 whole entry): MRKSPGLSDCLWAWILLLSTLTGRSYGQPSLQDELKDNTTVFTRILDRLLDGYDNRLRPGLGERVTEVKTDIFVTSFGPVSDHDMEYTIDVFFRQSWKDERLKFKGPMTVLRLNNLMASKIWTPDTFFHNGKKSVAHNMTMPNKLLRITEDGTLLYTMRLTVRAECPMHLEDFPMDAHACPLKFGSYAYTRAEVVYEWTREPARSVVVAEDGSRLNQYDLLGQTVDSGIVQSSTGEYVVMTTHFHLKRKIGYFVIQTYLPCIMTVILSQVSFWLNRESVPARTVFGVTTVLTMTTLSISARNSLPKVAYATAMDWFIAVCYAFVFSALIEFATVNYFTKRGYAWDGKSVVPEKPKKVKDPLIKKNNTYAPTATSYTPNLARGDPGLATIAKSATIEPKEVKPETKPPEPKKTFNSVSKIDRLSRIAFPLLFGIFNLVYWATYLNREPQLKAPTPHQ
T1 sequence (P18507 whole entry): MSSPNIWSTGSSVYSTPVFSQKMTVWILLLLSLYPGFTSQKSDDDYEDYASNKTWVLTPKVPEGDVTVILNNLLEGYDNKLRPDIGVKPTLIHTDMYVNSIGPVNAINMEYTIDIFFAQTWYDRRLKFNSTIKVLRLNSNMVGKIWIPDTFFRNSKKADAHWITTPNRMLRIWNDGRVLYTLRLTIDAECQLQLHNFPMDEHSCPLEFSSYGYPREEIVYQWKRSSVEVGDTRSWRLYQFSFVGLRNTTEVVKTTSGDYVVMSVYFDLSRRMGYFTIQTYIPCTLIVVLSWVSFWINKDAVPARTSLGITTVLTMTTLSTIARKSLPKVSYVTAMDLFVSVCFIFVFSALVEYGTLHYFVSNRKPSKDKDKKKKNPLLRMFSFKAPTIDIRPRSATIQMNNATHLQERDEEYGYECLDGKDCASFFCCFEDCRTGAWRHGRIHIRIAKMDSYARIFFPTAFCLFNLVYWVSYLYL
T1 sequence (P28472 whole entry): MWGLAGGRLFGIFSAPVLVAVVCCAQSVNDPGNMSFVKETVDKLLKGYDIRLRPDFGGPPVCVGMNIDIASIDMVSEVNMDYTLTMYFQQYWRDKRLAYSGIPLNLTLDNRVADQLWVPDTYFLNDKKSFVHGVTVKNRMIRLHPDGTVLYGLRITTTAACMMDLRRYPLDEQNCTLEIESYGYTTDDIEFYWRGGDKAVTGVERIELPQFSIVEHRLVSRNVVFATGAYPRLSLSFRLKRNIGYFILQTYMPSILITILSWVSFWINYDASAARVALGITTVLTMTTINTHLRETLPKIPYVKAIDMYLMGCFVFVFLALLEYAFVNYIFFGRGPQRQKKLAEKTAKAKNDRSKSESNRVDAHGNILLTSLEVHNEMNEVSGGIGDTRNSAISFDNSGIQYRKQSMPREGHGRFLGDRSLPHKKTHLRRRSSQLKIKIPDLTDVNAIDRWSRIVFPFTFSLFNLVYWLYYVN

[3] = biological target: T2, GABA-A receptor; alpha-3/beta-3/gamma-2 (Homo sapiens, UniProt P18507+P28472+P34903); experiment: Displacement of [3H]Flumazenil from cloned human GABA alpha-3-beta-3-gamma-2 receptor expressed in HEK293 cells; assay type: cell-based
T2 sequence (P18507 whole entry): T1 sequence (P18507 whole entry)
T2 sequence (P28472 whole entry): T1 sequence (P28472 whole entry)
T2 sequence (P34903 whole entry): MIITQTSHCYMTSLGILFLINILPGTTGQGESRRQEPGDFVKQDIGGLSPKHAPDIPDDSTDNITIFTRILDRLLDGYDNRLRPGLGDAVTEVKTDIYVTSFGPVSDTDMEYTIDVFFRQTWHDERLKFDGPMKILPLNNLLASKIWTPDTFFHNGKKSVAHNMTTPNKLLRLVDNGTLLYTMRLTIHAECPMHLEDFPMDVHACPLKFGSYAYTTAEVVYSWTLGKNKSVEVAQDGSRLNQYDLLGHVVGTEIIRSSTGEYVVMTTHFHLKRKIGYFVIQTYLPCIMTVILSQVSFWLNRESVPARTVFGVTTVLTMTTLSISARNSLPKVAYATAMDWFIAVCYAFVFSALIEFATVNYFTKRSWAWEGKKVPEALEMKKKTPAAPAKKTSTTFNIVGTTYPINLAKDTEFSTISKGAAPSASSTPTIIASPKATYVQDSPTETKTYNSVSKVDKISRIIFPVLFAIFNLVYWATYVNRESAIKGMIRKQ

[4] = biological target: GABA-A receptor; alpha-1/beta-2/gamma-2 (Rattus norvegicus) (UniProt P18508+P62813+P63138); experiment: Inverse agonist activity at rat GABA alpha-1-beta-3-gamma-2 receptor expressed in HEK293 cells by electrophysiology assay relative to GABA; assay type: functional, cell-based
[5] = biological target: GABA A receptor alpha-2/beta-2/gamma-2 (Rattus norvegicus) (UniProt P18508+P23576+P63138); experiment: Inverse agonist activity at rat GABA alpha-2-beta-3-gamma-2 receptor expressed in HEK293 cells by electrophysiology assay relative to GABA; assay type: functional, cell-based
[6] = Solubility by lypophlisation solubility assay; assay type: physicochemical
[7] = Permeability by PAMPA; assay type: ADME; conditions: read-out: permeability
[8] = Half life in rat; assay type: ADME, organism-based; conditions: in vivo
[9] = Volume of distribution at steady state in rat; assay type: ADME, organism-based; conditions: in vivo, read-out: Vdss
[10] = Oral bioavailability in rat; assay type: ADME, organism-based; conditions: in vivo
[11] = Ratio of drug level in brain to plasma in rat; assay type: ADME
HEK293 [12] = experiment: Selectivity ratio of Ki for cloned human GABA alpha-1-beta-3-gamma-2 receptor expressed in HEK293 cells to Ki for cloned human GABA alpha-5-beta-3-gamma-2 receptor expressed in HEK293 cells; assay type: cell-based
HEK293 [13] = experiment: Selectivity ratio of Ki for cloned human GABA alpha-2-beta-3-gamma-2 receptor expressed in HEK293 cells to Ki for cloned human GABA alpha-5-beta-3-gamma-2 receptor expressed in HEK293 cells; assay type: cell-based
HEK293 [14] = experiment: Selectivity ratio of Ki for cloned human GABA alpha-3-beta-3-gamma-2 receptor expressed in HEK293 cells to Ki for cloned human GABA alpha-5-beta-3-gamma-2 receptor expressed in HEK293 cells; assay type: cell-based

Row | Compound | Efficacy [1] | Ki [2] [nM] | Ki [3] [nM] | Efficacy [4] [%] | Efficacy [5] [%] | solubility [6] [µg/mL] | Papp [7] [×10⁻⁶ cm/s] | half-life [8] [min] | Vd [9] [L/kg] | bioavailability [10] [%] | Kp [11] | Ratio Ki (HEK293 [12]) | Ratio Ki (HEK293 [13]) | Ratio Ki (HEK293 [14])
1 | FC(F)c1ncn2c1Cn1ncnc1-c1cc(Br)ccc1-2 | -35% | 174 | 80 | -3 | -4 | 19 (≈ 54 µM) | 7 | 294 | 1.2 | 89 | 0.4 |  |  | 
2 | Clc1ccc2c(c1)-c1ncnn1Cc1c(Cl)ncn1-2 | -40 | 15 | 14 | -3 | -9 | 27 (≈ 92.4 µM) | 6.5 | 36 | 0.5 | 81 | 0.2 | 7 | 12 | 7
3 | Cc1ncn2c1Cn1ncnc1-c1cc(Cl)ccc1-2 | -41% | 18 | 265 | -11 | -2 | 13 (≈ 47.8 µM) | 8.9 | 204 | 1.9 | 52 | 0.6 | 6 | 72 | 88
4 | Clc1ncn2c1Cn1ncnc1-c1cc(Br)ccc1-2 | -48% | 33 | 8.8 | -13 | -25 | 9 (≈ 26.7 µM) | 7 | 96 | 1.3 | 56 |  | 24 | 18 | 7
